Laboratory results taken from patent US12479791B2, “Cationic lipid” (Takeda Pharmaceutical Company Limited, priority 2018, dated 2025).

Legend:
[1] = system: human liver cancer-derived cell line Hep3B stably expressing luciferase; assay: Transfection of cultured cell with siRNA (luciferase knockdown); type: cell-based; conditions: lipid particle containing luciferase siRNA, 48 hours after addition, read-out: siRNA concentration necessary for 50% knockdown
Description: A human liver cancer-derived cell line Hep3B stably expressing luciferase was cultured at a cell density of 6000 cells/well in a 96-well plate. 24 hours later, 10 μl of the lipid particle containing luciferase siRNA was added to the medium. 48 hours after the addition of siRNA, the amount of decrease in expression (knockdown) of luciferase was measured using Picagene LT2.0 kit (Toyobo Co., Ltd.).

[2] = Analysis of luciferase siRNA-encapsulated lipid nanoparticle (Production Example 1); type: physicochemical; conditions: for Rate of encapsulation / Average particle size: luc siRNA lipid nanoparticle; for siRNA concentration: luc siRNA lipid nanoparticle dispersion after dialysis and filtration; for Average particle size: cationic lipid:DPPC:cholesterol:GS-020=60:10.6:28:1.4, Z-average, dynamic light scattering
Description: (§1) The particle size of the lipid particle (in the composition) can be measured by a known approach. For example, the particle size can be calculated as a Z-average particle size by the cumulant analysis of an autocorrelation function using a particle size measurement apparatus Zetasizer Nano ZS (Malvern Instruments) based on a dynamic light scattering measurement technique. The particle size (average particle size) of the lipid particle (in the composition) is, for example, 10 to 200 nm, preferably 60 to 170 nm.
(§2) The concentration and rate of encapsulation of the nucleic acid (e.g., siRNA or mRNA) in the composition of the present invention can be measured by a known approach. For example, the nucleic acid is fluorescently labeled using Quant-iT™ RiboGreen® (Invitrogen Corp.), and the fluorescence intensity can be measured to determine the concentration and the rate of encapsulation. The concentration of the nucleic acid in the composition can be calculated using a calibration curve prepared from aqueous nucleic acid solutions having known concentrations. The rate of encapsulation can be calculated on the basis of the difference in fluorescence intensity between the presence and absence of addition of Triton-X 100 (surfactant for disrupting the lipid particle). The concentration of the nucleic acid in the composition refers to the total concentration of a nucleic acid encapsulated in the lipid particle and an unencapsulated nucleic acid. The rate of encapsulation refers to the ratio of the nucleic acid encapsulated in the lipid particle to all nucleic acids in the composition.
A lipid mixture (cationic lipid:DPPC:cholesterol:GS-020=60:10.6:28:1.4, molar ratio) was dissolved in 90% of EtOH and 10% of a 25 mM acetate buffer solution (pH 4.0) to obtain a 7.4 mg/ml lipid solution. Luciferase (luc) siRNA (see Table 2) was dissolved in a 25 mM acetate buffer solution (pH 4.0) to obtain a 0.15 mg/ml nucleic acid solution. The obtained lipid solution and nucleic acid solution were mixed at a flow rate ratio of 1 ml/min:5 ml/min at room temperature using Asia microfluidic system (Syrris Ltd.) to obtain a dispersion containing a composition. The obtained dispersion was dialyzed against water at room temperature for 1 hour and against PBS at room temperature for 18 hours using Slyde-A-Lyzer (molecular weight cutoff: 20 K, Thermo Fischer Scientific Inc.). Subsequently, the dialysate was filtered through a 0.2 μm syringe filter (Iwaki) and preserved at 4° C. Hereinafter, the particle size of the lipid particle in the composition was calculated as a Z-average particle size by the cumulant analysis of an autocorrelation function using a particle size measurement apparatus Zetasizer Nano ZS (Malvern Instruments) based on a dynamic light scattering measurement technique.

FVII gene = assay: Hepatic FVII gene knockdown in CCl4 hepatic fibrosis mouse model; type: in vivo; conditions: male Balb/c mouse, Col1a1 siRNA + FVII siRNA 0.1 + 0.1 mg/kg intravenous, liver 4 days after administration, qPCR normalized with GAPDH
Description: (§3) The Col1a1 siRNA-encapsulated lipid nanoparticle was administered at 0.1 mg/kg into the orbital plexus of the vein of each 8-week-old male Balb/c mouse. 3 hours later, CCl4 mixed with corn oil was orally administered at a dose of 0.1 mL/kg (10 mL/kg) by forced single-dose administration (n=6 in each group). 4 days after the administration of the siRNA-encapsulated lipid nanoparticle, the liver was collected from the mouse euthanized under anesthesia, followed by gene expression analysis by quantitative PCR. The Col1a1 gene expression level and the FVII gene expression level were normalized with the expression level of GAPDH. The amount of decrease in Col1a1 gene expression as compared with a siRNA non-administration group was regarded as the rate of knockdown. In mice intravenously given the siRNA-encapsulated lipid nanoparticle formed using the compound of the present invention, the knockdown of the activated stellate cell marker gene Col1a1 gene was strongly observed, as compared with the rate of knockdown of the hepatic parenchymal cell marker gene FVII.

[3] = Analysis of Col1a1 siRNA + FVII siRNA-encapsulated lipid nanoparticle (Production Example 3); type: physicochemical; conditions: for Rate of encapsulation / Particle size: Col1a1 siRNA + FVII siRNA lipid nanoparticle; for Particle size: cationic lipid:DPPC:cholesterol:GS-020=60:10.6:28:1.4; for Col1a1 siRNA + FVII siRNA concentration: lipid nanoparticle dispersion after dialysis and filtration
Description: as §1, §2
A lipid mixture (cationic lipid:DPPC:cholesterol:GS-020=60:10.6:28:1.4, molar ratio) was dissolved in 90% of EtOH and 10% of a 25 mM acetate buffer solution (pH 4.0) to obtain a 7.4 mg/ml lipid solution. siRNA against collagen 1a1 (Col1a1) and siRNA against factor VII (FVII) were dissolved in equal weights in a 25 mM acetate buffer solution (pH 4.0) to obtain a 0.15 mg/ml nucleic acid solution. The sequences of Col1a1 siRNA and FVII siRNA were quoted from Hepatology, […], No. 4, 2015, and Silence, Vol. 1, No. 16, 2010, respectively. The obtained lipid solution and nucleic acid solution were mixed at a flow rate ratio of 1 ml/min:5 ml/min using a microfluidic mixing apparatus NanoAssemblr (Precision NanoSystems Inc.) to obtain a dispersion containing a composition. The obtained dispersion was dialyzed against water at room temperature for 1 hour and against PBS at room temperature for 18 hours using Slyde-A-Lyzer (molecular weight cutoff: 20 K, Thermo Fischer Scientific Inc.). Subsequently, the dialysate was filtered through a 0.2 μm syringe filter (Iwaki) and preserved at 4° C. The siRNA-encapsulated lipid nanoparticle was very favorably formed using the compound of the present invention.

[4] = system: human colorectal cancer-derived cell line HCT116; assay: Transfection of cultured cell with mRNA (luciferase luminescence); type: cell-based; conditions: 10 ng luciferase mRNA, 24 hours, Table 10 (PBS control 293)
Description: A human colorectal cancer-derived cell line HCT116 was cultured at a cell density of 6000 cells/well in a 96-well plate. 24 hours later, 10 μl of the lipid particle containing 10 ng of luciferase mRNA was added to the medium. 24 hours after the addition of mRNA, a reagent of Picagene LT2.0 kit (Toyobo Co., Ltd.) was added to the culture plate of HCT116. The luminescence (count per sec (cps)) of luciferase was measured using a luminescence plate reader EnVision (PerkinElmer, Inc.).

Col1a1 gene = assay: Hepatic collagen 1a1 gene knockdown in CCl4 hepatic fibrosis mouse model; type: in vivo; conditions: male Balb/c mouse, Col1a1 siRNA + FVII siRNA 0.1 + 0.1 mg/kg intravenous, liver 4 days after administration, qPCR normalized with GAPDH, vs siRNA non-administration group
Description: as §3

[5] = Analysis of luciferase mRNA-encapsulated lipid nanoparticle (Production Example 2); type: physicochemical; conditions: for Rate of encapsulation / Average particle size: luciferase mRNA lipid nanoparticle; for mRNA concentration: luciferase mRNA lipid nanoparticle dispersion after dialysis and filtration; for Average particle size: cationic lipid:DPPC:cholesterol:GS-020=60:10.6:28:1.4
Description: as §1, §2
A lipid mixture (cationic lipid:DPPC:cholesterol:GS-020=60:10.6:28:1.4, molar ratio) was dissolved in 90% of EtOH and 10% of water to obtain an 8.5 mg/ml lipid solution. Luciferase mRNA (TriLink BioTechnologies, Inc.) was dissolved in a 10 mM 2-morpholinoethanesulfonic acid (MES) buffer solution (pH 4.0) to obtain a 0.22 mg/ml nucleic acid solution. The obtained lipid solution and nucleic acid solution were mixed at a flow rate ratio of 3 ml/min:6 ml/min at room temperature using NanoAssemblr apparatus (Precision NanoSystems Inc.) to obtain a dispersion containing a composition. The obtained dispersion was dialyzed against water at room temperature for 1 hour and against PBS at 4° C. for 48 hours using Slyde-A-Lyzer (molecular weight cutoff: 20 K, Thermo Fischer Scientific Inc.). Subsequently, the dialysate was filtered through a 0.2 μm syringe filter (Iwaki) and preserved at 4° C.

IC50 [1] [nM] | Rate of encapsulation [2] [%] | siRNA concentration [2] [µg/mL] | Average particle size [2] [nm] | SMILES | Rate of FVII knockdown (FVII gene) [%] | Rate of encapsulation [3] [%] | Particle size [3] [nm] | Col1a1 siRNA + FVII siRNA concentration [3] [µg/mL] | Average luminescence (cps) of 3 wells [4] [cps] | Rate of Col1a1 knockdown (Col1a1 gene) [%] | Rate of encapsulation [5] [%] | mRNA concentration [5] [µg/mL] | Average particle size [5] [nm]
14 | 96 | 415 | 71 | CCCCCCCC(=O)OCC(COC(=O)CCCCCCC)(COC(=O)CCCN(C)C)COC(=O)C(CCCCCC)CCCCCC [Example 2, 2-(((4-(Dimethylamino)butanoyl)oxy)methyl)-2-(((2-hexyloctanoyl)oxy)methyl)propane-1,3-diyl dioctanoate] |  |  |  |  |  |  |  |  | 
55 | 96 | 445 | 81 | CCCCCCCC(=O)OCC(COC(=O)CCCCCCC)(COC(=O)CCCCN(C)C)COC(=O)C(CCCCCC)CCCCCC [Example 3, 2-(((5-(Dimethylamino)pentanoyl)oxy)methyl)-2-(((2-hexyloctanoyl)oxy)methyl)propane-1,3-diyl dioctanoate] |  |  |  |  |  |  |  |  | 
190 | 91 | 121 | 73 | CCCCCCC(=O)OCC(COC(=O)CCCN(C)C)(COC(=O)C(CCCCC)CCCCC)COC(=O)C(CCCCC)CCCCC [Example 4, 2-(((4-(Dimethylamino)butanoyl)oxy)methyl)-2-((heptanoyloxy)methyl)propane-1,3-diyl bis(2-pentylheptanoate)] |  |  |  |  |  |  |  |  | 
28 | 96 | 120 | 83 | CCCCCCC(=O)OCC(COC(=O)CCCCN(C)C)(COC(=O)C(CCCCC)CCCCC)COC(=O)C(CCCCC)CCCCC [Example 5, 2-(((5-(Dimethylamino)pentanoyl)oxy)methyl)-2-((heptanoyloxy)methyl)propane-1,3-diyl bis(2-pentylheptanoate)] |  |  |  |  |  |  |  |  | 
41 | 93 | 389 | 77 | CCCCCCCC(=O)OCC(COC(=O)CCCN(C)C)(COC(=O)C(CCCCCC)CCCCCC)COC(=O)C(CCCCCC)CCCCCC [Example 6, 2-(((4-(Dimethylamino)butanoyl)oxy)methyl)-2-((octanoyloxy)methyl)propane-1,3-diyl bis(2-hexyloctanoate)] |  |  |  |  |  |  |  |  | 
1.2 | 97 | 376 | 73 | CCCCCCCC(=O)OCC(COC(=O)CCCCN(C)C)(COC(=O)C(CCCCCC)CCCCCC)COC(=O)C(CCCCCC)CCCCCC [Example 7, 2-(((5-(Dimethylamino)pentanoyl)oxy)methyl)-2-((octanoyloxy)methyl)propane-1,3-diyl bis(2-hexyloctanoate)] |  |  |  |  |  |  |  |  | 
 |  |  |  | CCCCCCCCCC(=O)OCC(COC(=O)CCCCCCCCC)(COC(=O)CCCCN(C)C)COC(=O)CCC(CCCC)C(CCCC)CCCC (stereo not drawn) [Example 14, 2-(((4,5-Dibutylnonanoyl)oxy)methyl)-2-(((5-(dimethylamino)pentanoyl)oxy)methyl)propane-1,3-diyl didecanoate] | 16 | 96 | 97 | 126 | 178133 | 76 | 94 | 134 | 88
 |  |  |  | CCCCCCCCCC(=O)OCC(COC(=O)CCCCCCCCC)(COC(=O)CCCCN(C)C)COC(=O)CCC(CCC)C(CCC)CCC (stereo not drawn) [Example 16, 2-(((5-(Dimethylamino)pentanoyl)oxy)methyl)-2-(((4,5-dipropyloctanoyl)oxy)methyl)propane-1,3-diyl didecanoate] | 15 | 96 | 103 | 124 | 141560 | 74 | 94 | 134 | 109
